± gives the expanded uncertainty stated by the source.
Settings: 101.33 kPa, Liquid, Vibrating tube method

C[n+]1ccn(CCCCS(=O)(=O)O)c1.O=S(=O)([N-]S(=O)(=O)C(F)(F)F)C(F)(F)F
Settings	mass density [kg/m3]
298.15 K	1577 ± 2
299.45 K	1575.8 ± 2.3
300.75 K	1574.9 ± 2.3
302.15 K	1573.7 ± 2.3
303.45 K	1572.7 ± 2.3
304.75 K	1571.5 ± 2.3
305.85 K	1570.5 ± 2.3
307.15 K	1569.2 ± 2.3
308.65 K	1568 ± 2
310.35 K	1566.7 ± 2.2
311.75 K	1565.5 ± 2.2
313.05 K	1564.3 ± 2.2
314.45 K	1563.2 ± 2.2
315.85 K	1562 ± 2
317.25 K	1560.9 ± 2.2
318.75 K	1559.8 ± 2.2
320.05 K	1558.8 ± 2.2
321.45 K	1557.7 ± 2.2
322.85 K	1556.4 ± 2.2
324.65 K	1554.8 ± 2.2
326.65 K	1553.4 ± 2.2
328.45 K	1551.8 ± 2.2
338.55 K	1543.9 ± 2.2
343.5 K	1539.7 ± 2.2

C[n+]1ccn(CCCCS(=O)(=O)O)c1.O=S(=O)([O-])C(F)(F)F
Settings	mass density [kg/m3]
298.15 K	1478.4 ± 2
299.45 K	1478 ± 2
300.75 K	1477 ± 2
302.15 K	1476.1 ± 2
303.45 K	1475.3 ± 2
304.75 K	1474.7 ± 2
305.85 K	1473.8 ± 2
307.15 K	1472.8 ± 2
308.65 K	1472 ± 2
310.35 K	1470.9 ± 2
311.75 K	1470.1 ± 2
313.05 K	1469.3 ± 2
314.45 K	1468.2 ± 2
315.85 K	1467.3 ± 2
317.25 K	1466.3 ± 2
318.75 K	1465.6 ± 2
320.05 K	1464.8 ± 2
321.45 K	1463.7 ± 2
322.85 K	1462.7 ± 1.9
324.65 K	1461.5 ± 1.9
326.65 K	1461.3 ± 1.9
328.45 K	1460.2 ± 1.9
338.55 K	1453.7 ± 1.9
343.5 K	1450.6 ± 1.9

C[n+]1ccn(CCCCS(=O)(=O)O)c1.O=S(=O)([O-])O [1-methyl-3-(4-sulfobutyl)-imidazolium hydrogensulfate]
Settings	mass density [kg/m3]
298.15 K	1437.7 ± 1.9
299.45 K	1436.9 ± 1.9
300.75 K	1436.3 ± 1.9
302.15 K	1435.4 ± 1.9
303.45 K	1434.8 ± 1.9
304.75 K	1434 ± 2
305.85 K	1433.3 ± 1.9
307.15 K	1432.4 ± 1.9
308.65 K	1431.7 ± 1.9
310.35 K	1430.8 ± 1.9
311.75 K	1430 ± 2
313.05 K	1429.3 ± 1.9
314.45 K	1428.5 ± 1.9
315.85 K	1427.8 ± 1.9
317.25 K	1426.9 ± 1.8
318.75 K	1426.4 ± 1.8
320.05 K	1425.8 ± 1.8
321.45 K	1424.7 ± 1.8
322.85 K	1423.9 ± 1.8
324.65 K	1423.2 ± 1.8
326.65 K	1422.1 ± 1.8
328.45 K	1421.2 ± 1.8
338.55 K	1414.5 ± 1.8
343.5 K	1411.7 ± 1.8

From the NIST ThermoML archive (doi:10.1016/j.fluid.2014.06.021)
